Assay results as given in PMC8288134, “Synthesis, potential antitumor activity, cell cycle analysis, and multitarget mechanisms of novel hydrazones incorporating a 4-methylsulfonylbenzene scaffold: a molecular docking study” (Journal of Enzyme Inhibition and Medicinal Chemistry, 2021).
Read-outs that look alike come from different tables or passages of the source.

How the values were obtained:
A549/ATCC = assay: NCI antitumor screen (SRB); assay type: cell-based; settings: Homo sapiens, one dose 10 µM, read-out: Growth inhibition percentage (GI%)
MOLT-4 = assay: NCI antitumor screen (SRB); assay type: cell-based; settings: Homo sapiens, one dose 10 µM, read-out: Growth inhibition percentage (GI%)
HL-60(TB) = assay: cells; assay type: cell-based, human; settings: Homo sapiens, HL-60, HL-60(TB); one dose 10 µM; read-out: Growth inhibition percentage (GI%)
HT29 = assay: NCI antitumor screen (SRB); assay type: cell-based; settings: Homo sapiens, HT-29, one dose 10 µM, read-out: Growth inhibition percentage (GI%)
K-562 = assay: NCI antitumor screen (SRB); assay type: cell-based; settings: Homo sapiens, K562, read-out: Growth inhibition percentage (GI%)
UO-31 = assay: NCI antitumor screen (SRB); assay type: cell-based, human; settings: Homo sapiens, one dose 10 µM, read-out: Growth inhibition percentage (GI%)
NCI-H522 = assay: NCI antitumor screen (SRB); assay type: cell-based; settings: Homo sapiens
UACC-257 = assay: NCI antitumor screen (SRB); assay type: cell-based, human; settings: Homo sapiens, one dose 10 µM, read-out: Growth inhibition percentage (GI%)
HOP-62 = assay: NCI antitumor screen (SRB); assay type: cell-based; settings: Homo sapiens, HOP-62, read-out: Growth inhibition percentage (GI%)
[1] = tested on: full panel of 59 cancer cell lines; assay: NCI antitumor screen, full panel; settings: one dose 10 µM
PC-3 = assay: NCI antitumor screen (SRB); assay type: cell-based; settings: Homo sapiens, one dose 10 µM, read-out: Growth inhibition percentage (GI%)
SK-MEL-2 = assay: NCI antitumor screen (SRB); assay type: cell-based; settings: Homo sapiens
A498 = assay: NCI antitumor screen (SRB); assay type: cell-based; settings: Homo sapiens, one dose 10 µM, read-out: Growth inhibition percentage (GI%)
CCRF-CEM = assay: NCI antitumor screen (SRB); assay type: cell-based; settings: Homo sapiens, one dose 10 µM, read-out: Growth inhibition percentage (GI%)
OVCAR-8 = assay: NCI antitumor screen (SRB); assay type: cell-based; settings: Homo sapiens, one dose 10 µM, read-out: Growth inhibition percentage (GI%)
U251 = assay: NCI antitumor screen (SRB); assay type: cell-based; settings: Homo sapiens, U-251, one dose 10 µM, read-out: Growth inhibition percentage (GI%)
SR = assay: NCI antitumor screen (SRB); assay type: cell-based; settings: Homo sapiens, one dose 10 µM, read-out: Growth inhibition percentage (GI%)
NCI-H226 = assay: NCI antitumor screen (SRB); assay type: cell-based; settings: Homo sapiens, one dose 10 µM, read-out: Growth inhibition percentage (GI%)
HCT-116 = assay: NCI antitumor screen (SRB); assay type: cell-based; settings: Homo sapiens, read-out: Growth inhibition percentage (GI%)
SK-OV-3 = assay: NCI antitumor screen (SRB); assay type: cell-based; settings: Homo sapiens, one dose 10 µM, read-out: Growth inhibition percentage (GI%)
T-47D = assay: NCI antitumor screen (SRB); assay type: cell-based; settings: Homo sapiens, T47D, one dose 10 µM, read-out: Growth inhibition percentage (GI%)
SNB-75 = assay: NCI antitumor screen (SRB); assay type: cell-based; settings: Homo sapiens, one dose 10 µM, read-out: Growth inhibition percentage (GI%)
COLO 205 = assay: NCI antitumor screen (SRB); assay type: cell-based; settings: Homo sapiens, one dose 10 µM, read-out: Growth inhibition percentage (GI%)
CAKI-1 = assay: NCI antitumor screen (SRB); assay type: cell-based; settings: Homo sapiens, one dose 10 µM, read-out: Growth inhibition percentage (GI%)
[2] = NCI-H522, read-out: Growth inhibition percentage (GI%)
[3] = SK-MEL-2, read-out: Growth inhibition percentage (GI%)

`CN(C)c1ccc(C=NNC(=O)c2ccc(S(C)(=O)=O)cc2)cc1` [Compound 12, N'-(4-(Dimethylamino)benzylidene)-4-(methylsulfonyl)benzohydrazide] showed an inhibition at 10 µM (A549/ATCC) of 28.4%, an inhibition at 10 µM (MOLT-4) of 29.8% and an inhibition at 10 µM (HL-60(TB)) of 38%. For the same compound, the inhibition at 10 µM (HT29) was 20.5%, the inhibition at 10 µM (K-562) was 17.2% and the inhibition at 10 µM (UO-31; UO-31) was 11.2%. The inhibition at 10 µM (NCI-H522; [2]) was 40.4%, the inhibition at 10 µM (UACC-257; UACC-257) was 39.2% and the inhibition at 10 µM (HOP-62) was 11.4%. For the same compound, the “PCE: positive cytotoxic effect (number of cell lines with GI 10 to 100% / total number of cell lines)” value [1] was 9/59.
`COc1cc(OC)c(OC)cc1/C=N/NC(=O)c1ccc(S(C)(=O)=O)cc1` [Compound 24] gave an inhibition at 10 µM (A549/ATCC) of 17.1%, an inhibition at 10 µM (MOLT-4) of 21.4% and an inhibition at 10 µM (PC-3) of 18.6%. For the same compound, the inhibition at 10 µM (HT29) was 17.9%, the inhibition at 10 µM (UO-31; UO-31, UO-31) was 10.5% and the inhibition at 10 µM (NCI-H522; NCI-H522, one dose 10 µM, read-out: Growth inhibition percentage (GI%)) was 39.8%. The inhibition at 10 µM (UACC-257; UACC-257, UACC-257) was 21.6%, the inhibition at 10 µM (SK-MEL-2; SK-MEL-2, one dose 10 µM, read-out: Growth inhibition percentage (GI%)) was 11.7% and the “PCE: positive cytotoxic effect (number of cell lines with GI 10 to 100% / total number of cell lines)” value [1] was 8/59.
`CS(=O)(=O)c1ccc(C(=O)NN=Cc2ccc(Cl)cc2)cc1` [Compound 7, N'-(4-Chlorobenzylidene)-4-(methylsulfonyl)benzohydrazide] was tested, and the inhibition at 10 µM (MOLT-4) was 29.4%, the inhibition at 10 µM (PC-3) was 22.8% and the inhibition at 10 µM (HL-60(TB)) was 52.1%. For the same compound, the inhibition at 10 µM (K-562) was 14%, the inhibition at 10 µM (A498) was 12.3% and the inhibition at 10 µM (NCI-H522; [2]) was 15.7%. The inhibition at 10 µM (SK-MEL-2; [3]) was 12.8% and the “PCE: positive cytotoxic effect (number of cell lines with GI 10 to 100% / total number of cell lines)” value [1] was 7/59.
With `CS(=O)(=O)c1ccc(C(=O)NN=Cc2ccc3c(c2)OCO3)cc1` [Compound 22, N'-(Benzo[d][1,3]dioxol-5-ylmethylene)-4-(methylsulfonyl)benzohydrazide] the inhibition at 10 µM (A549/ATCC) was 32.3%, the inhibition at 10 µM (MOLT-4) was 29.9% and the inhibition at 10 µM (HL-60(TB)) was 43%. The inhibition at 10 µM (HT29) was 11%, the inhibition at 10 µM (K-562) was 14.5% and the inhibition at 10 µM (NCI-H522; [2]) was 14%. For the same compound, the inhibition at 10 µM (UACC-257; UACC-257) was 40.9%, the inhibition at 10 µM (SK-MEL-2; [3]) was 10.9% and the “PCE: positive cytotoxic effect (number of cell lines with GI 10 to 100% / total number of cell lines)” value [1] was 9/59. It also gave an inhibition at 10 µM (CCRF-CEM) of 13%.
Compound `COc1cc(/C=N/NC(=O)c2ccc(S(C)(=O)=O)cc2)ccc1O` [Compound 19] has an inhibition at 10 µM (A549/ATCC) of 29.3%, an inhibition at 10 µM (OVCAR-8) of 19.6% and an inhibition at 10 µM (MOLT-4) of 30.9%. For the same compound, the inhibition at 10 µM (HL-60(TB)) was 67.3%, the inhibition at 10 µM (HT29) was 17.5% and the inhibition at 10 µM (K-562) was 27.2%. It also gave an inhibition at 10 µM (UO-31; UO-31) of 12.8%, an inhibition at 10 µM (NCI-H522; [2]) of 37.7% and an inhibition at 10 µM (UACC-257; UACC-257) of 48.4%. It also gave an inhibition at 10 µM (U251) of 13%, an inhibition at 10 µM (SK-MEL-2; [3]) of 13.9% and an inhibition at 10 µM (SR) of 18.5%. For the same compound, the inhibition at 10 µM (HOP-62) was 12.1% and the “PCE: positive cytotoxic effect (number of cell lines with GI 10 to 100% / total number of cell lines)” value [1] was 13/59.
`COc1ccccc1C=NNC(=O)c1ccc(S(C)(=O)=O)cc1` [Compound 15, N'-(2-Methoxybenzylidene)-4-(methylsulfonyl)benzohydrazide] showed an inhibition at 10 µM (A549/ATCC) of 11.9%, an inhibition at 10 µM (MOLT-4) of 11.6% and an inhibition at 10 µM (PC-3) of 19.1%. For the same compound, the inhibition at 10 µM (HL-60(TB)) was 36.5%, the inhibition at 10 µM (NCI-H226) was 10.3% and the inhibition at 10 µM (HCT-116) was 10.7%. For the same compound, the inhibition at 10 µM (K-562) was 23.4%, the inhibition at 10 µM (SK-OV-3) was 17.1% and the inhibition at 10 µM (T-47D) was 18.2%. It also gave an inhibition at 10 µM (UO-31; UO-31) of 14.4%, an inhibition at 10 µM (UACC-257; UACC-257) of 10.1% and an inhibition at 10 µM (SR) of 15.6%. The inhibition at 10 µM (HOP-62) was 18.9%, the “PCE: positive cytotoxic effect (number of cell lines with GI 10 to 100% / total number of cell lines)” value [1] was 14/59 and the inhibition at 10 µM (CCRF-CEM) was 16.1%.
In the case of `COc1cc(C=NNC(=O)c2ccc(S(C)(=O)=O)cc2)cc(OC)c1OC` [Compound 23, 4-(Methylsulfonyl)-N'-(3,4,5-trimethoxybenzylidene)benzohydrazide], the inhibition at 10 µM (A549/ATCC) is reported as 22.8%, the inhibition at 10 µM (MOLT-4) is reported as 32.6% and the inhibition at 10 µM (HL-60(TB)) is reported as 44.2%. The inhibition at 10 µM (SNB-75) was 11.3%, the inhibition at 10 µM (K-562) was 37.6% and the inhibition at 10 µM (SK-OV-3) was 14.2%. It also gave an inhibition at 10 µM (COLO 205) of 14.6%, an inhibition at 10 µM (UO-31; UO-31) of 10.2% and an inhibition at 10 µM (UACC-257; UACC-257) of 28.6%. The “PCE: positive cytotoxic effect (number of cell lines with GI 10 to 100% / total number of cell lines)” value [1] was 9/59.
Work on `CS(=O)(=O)c1ccc(C(=O)NN=Cc2ccccc2F)cc1` [Compound 14, N'-(2-Fluorobenzylidene)-4-(methylsulfonyl)benzohydrazide] yielded an inhibition at 10 µM (A549/ATCC) of 29.3%, an inhibition at 10 µM (OVCAR-8) of 14.5% and an inhibition at 10 µM (MOLT-4) of 26.4%. The inhibition at 10 µM (HL-60(TB)) was 36%, the inhibition at 10 µM (HT29) was 18.6% and the inhibition at 10 µM (K-562) was 25.7%. It also gave an inhibition at 10 µM (T-47D) of 11.8%, an inhibition at 10 µM (NCI-H522; [2]) of 26% and an inhibition at 10 µM (UACC-257; UACC-257) of 42.4%. The inhibition at 10 µM (SR) was 49.2%, the inhibition at 10 µM (HOP-62) was 15.8% and the “PCE: positive cytotoxic effect (number of cell lines with GI 10 to 100% / total number of cell lines)” value [1] was 12/59. The inhibition at 10 µM (CAKI-1) was 11.7%.
